Source: PubChem BioAssay (NCI)
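Values below derive from 48-hour exposures of cells grown in 96-well plates, with endpoints linearly interpolated between the two concentrations bracketing the appropriate inhibition level. Abbreviation: GI50, concentration required for 50% inhibition of growth. TGI is the concentration that stops growth completely.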

Key:
Experiment in all cases: inhibition of tumour cell growth, NCI panel, 48 h
HS 578T breast = test system: HS 578T breast
SNB-75 CNS = test system: SNB-75 CNS
M14 melanoma = test system: M14 melanoma
HOP-92 NSCLC = test system: HOP-92 NSCLC
RPMI-8226 leukemia = test system: RPMI-8226 leukemia
786-0 renal = test system: 786-0 renal
SK-MEL-5 melanoma = test system: SK-MEL-5 melanoma
CAKI-1 renal = test system: CAKI-1 renal
U251 CNS = test system: U251 CNS
UACC-257 melanoma = test system: UACC-257 melanoma
HL-60(TB) leukemia = test system: HL-60(TB) leukemia
PC-3 prostate = test system: PC-3 prostate
HT29 colon = test system: HT29 colon
BT-549 breast = test system: BT-549 breast
IGROV1 ovarian = test system: IGROV1 ovarian
CCRF-CEM leukemia = test system: CCRF-CEM leukemia
MDA-MB-435 = test system: MDA-MB-435
UO-31 renal = test system: UO-31 renal
SF-295 CNS = test system: SF-295 CNS
NCI-H226 lung = test system: NCI-H226 lung
A549 NSCLC = test system: A549 NSCLC
SF-268 CNS = test system: SF-268 CNS
TK-10 renal = test system: TK-10 renal
MDA-MB-231 breast = test system: MDA-MB-231 breast
K-562 leukemia = test system: K-562 leukemia
SK-MEL-28 melanoma = test system: SK-MEL-28 melanoma
DU-145 prostate = test system: DU-145 prostate
A498 renal = test system: A498 renal
MOLT-4 leukemia = test system: MOLT-4 leukemia

For `CC(C)(C)Nc1nc2c(OCCc3ccccc3)cccn2c1-c1ccccc1Cl`, which GI50 (HS 578T breast) is on record?
Its GI50 is 4.05 µM.

What about the TGI (HS 578T breast) of the same molecule?
The TGI was 21.4 µM.

And the GI50 (SNB-75 CNS)?
The GI50 was 1.58 µM.

What about the TGI (SNB-75 CNS) of the same molecule?
Its TGI is 13.9 µM.

And the GI50 (M14 melanoma)?
Its GI50 is 3.9 µM.

And the TGI (M14 melanoma)?
The TGI was 15.3 µM.

What about the GI50 (HOP-92 NSCLC) of the same molecule?
Its GI50 is 2.36 µM.

And the TGI (HOP-92 NSCLC)?
Its TGI is 7.93 µM.

What about the GI50 (RPMI-8226 leukemia) of the same molecule?
The GI50 was 2.78 µM.

What about the TGI (RPMI-8226 leukemia) of the same molecule?
The TGI was 7.5 µM.

And the GI50 (786-0 renal)?
The GI50 was 4.84 µM.

What about the TGI (786-0 renal) of the same molecule?
The TGI was 18.1 µM.

And the GI50 (SK-MEL-5 melanoma)?
The GI50 was 2.01 µM.

And the TGI (SK-MEL-5 melanoma)?
Its TGI is 4.43 µM.

What about the GI50 (CAKI-1 renal) of the same molecule?
Its GI50 is 5.89 µM.

What about the TGI (CAKI-1 renal) of the same molecule?
The TGI was 20.2 µM.

And the GI50 (U251 CNS)?
Its GI50 is 3.14 µM.

What about the TGI (U251 CNS) of the same molecule?
The TGI was 12.5 µM.

What about the GI50 (UACC-257 melanoma) of the same molecule?
Its GI50 is 3.52 µM.

And the TGI (UACC-257 melanoma)?
Its TGI is 13 µM.

What about the GI50 (HL-60(TB) leukemia) of the same molecule?
Its GI50 is 2.42 µM.

And the TGI (HL-60(TB) leukemia)?
The TGI was 5.68 µM.

What about the GI50 (PC-3 prostate) of the same molecule?
The GI50 was 3.37 µM.

What about the TGI (PC-3 prostate) of the same molecule?
Its TGI is 15.5 µM.

What about the GI50 (HT29 colon) of the same molecule?
The GI50 was 4.62 µM.

What about the TGI (HT29 colon) of the same molecule?
The TGI was 30.1 µM.

What about the GI50 (BT-549 breast) of the same molecule?
The GI50 was 2.61 µM.

And the TGI (BT-549 breast)?
Its TGI is 10.2 µM.

And the GI50 (IGROV1 ovarian)?
Its GI50 is 5.05 µM.

And the TGI (IGROV1 ovarian)?
The TGI was 17.8 µM.

What about the GI50 (CCRF-CEM leukemia) of the same molecule?
The GI50 was 3.56 µM.

What about the TGI (CCRF-CEM leukemia) of the same molecule?
Its TGI is 16 µM.

What about the GI50 (MDA-MB-435) of the same molecule?
Its GI50 is 3.29 µM.

What about the TGI (MDA-MB-435) of the same molecule?
The TGI was 11.2 µM.

And the GI50 (UO-31 renal)?
Its GI50 is 3.2 µM.

And the TGI (UO-31 renal)?
The TGI was 16.8 µM.

And the GI50 (SF-295 CNS)?
Its GI50 is 3.19 µM.

And the TGI (SF-295 CNS)?
Its TGI is 12.6 µM.

And the GI50 (NCI-H226 lung)?
Its GI50 is 3.52 µM.

And the TGI (NCI-H226 lung)?
Its TGI is 16.6 µM.

What about the GI50 (A549 NSCLC) of the same molecule?
The GI50 was 4.88 µM.

What about the TGI (A549 NSCLC) of the same molecule?
Its TGI is 27.1 µM.

What about the GI50 (SF-268 CNS) of the same molecule?
The GI50 was 4.52 µM.

What about the TGI (SF-268 CNS) of the same molecule?
Its TGI is 18.8 µM.

What about the GI50 (TK-10 renal) of the same molecule?
Its GI50 is 6.49 µM.

And the TGI (TK-10 renal)?
Its TGI is 20.4 µM.

And the GI50 (MDA-MB-231 breast)?
Its GI50 is 5.95 µM.

And the TGI (MDA-MB-231 breast)?
Its TGI is 19 µM.

And the GI50 (K-562 leukemia)?
The GI50 was 3.25 µM.

And the TGI (K-562 leukemia)?
The TGI was 18.1 µM.

What about the GI50 (SK-MEL-28 melanoma) of the same molecule?
The GI50 was 3.45 µM.

What about the TGI (SK-MEL-28 melanoma) of the same molecule?
The TGI was 13.1 µM.

And the GI50 (DU-145 prostate)?
Its GI50 is 7.9 µM.

And the TGI (DU-145 prostate)?
Its TGI is 24.6 µM.

What about the GI50 (A498 renal) of the same molecule?
The GI50 was 11.8 µM.

And the TGI (A498 renal)?
The TGI was 24.3 µM.

And the GI50 (MOLT-4 leukemia)?
Its GI50 is 3.63 µM.

What about the TGI (MOLT-4 leukemia) of the same molecule?
The TGI was 17 µM.
